Data set [1] concerns Alopecurus myosuroides (ALOMY). Kind of data set: Example B pre-emergence herbicidal activity, glasshouse pot test. It is filed as in vivo. Conditions: 312 h, rate 250 g/ha, evaluated after 13 days, read-out: Pre-emergence activity ALOMY (100=total damage to plant; 0=no damage to plant). The method, boiled down:
(§1)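 After sowing in standard soil, pots were cultivated 1 day (pre-emergence) or 8 days (post-emergence), then treated with an aqueous spray of the formulated active ingredient (acetone/water 50:50, 0.5% Tween 20). Phytotoxicity was assessed on a 0–100 scale at 13 days.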

For data set [2], the system named is Amaranthus retroflexus (AMARE). The description is as above. The class given is in vivo. Conditions: 312 h, rate 250 g/ha, evaluated after 13 days, read-out: Pre-emergence activity AMARE (100=total damage to plant; 0=no damage to plant). The method in brief:
as §1

The subject of data set [3] is Avena fatua (AVEFA). Described as above. It is filed as in vivo. Conditions: 312 h, rate 250 g/ha, evaluated after 13 days, read-out: Pre-emergence activity AVEFA (100=total damage to plant; 0=no damage to plant). The method in brief: as §1
Data set [4] relates to Echinochloa crus-galli (ECHCG). Described as above. Conditions: 312 h, rate 250 g/ha, evaluated after 13 days, read-out: Pre-emergence activity ECHCG (100=total damage to plant; 0=no damage to plant). The class given is in vivo. The method, boiled down: as §1
The test system of data set [5] is Setaria faberi (SETFA). The description is as above. It is filed as in vivo. Conditions: 312 h, rate 250 g/ha, evaluated after 13 days, read-out: Pre-emergence activity SETFA (100=total damage to plant; 0=no damage to plant). The method, boiled down: as §1
The test system of data set [6] is Alopecurus myosuroides (ALOMY). Kind of data set: Example B post-emergence herbicidal activity, glasshouse pot test. Conditions: 312 h, rate 250 g/ha, evaluated after 13 days, read-out: Post-emergence activity ALOMY (100=total damage to plant; 0=no damage to plant). The class given is in vivo. The method, boiled down:
as §1

The test system of data set [7] is Amaranthus retroflexus (AMARE). Described as above. It is filed as in vivo. Conditions: 312 h, rate 250 g/ha, evaluated after 13 days, read-out: Post-emergence activity AMARE (100=total damage to plant; 0=no damage to plant). The method, boiled down:
as §1

Data set [8] relates to Avena fatua (AVEFA). Described as above. The class given is in vivo. Conditions: 312 h, rate 250 g/ha, evaluated after 13 days, read-out: Post-emergence activity AVEFA (100=total damage to plant; 0=no damage to plant). The method in brief:
as §1

Data set [9] relates to Echinochloa crus-galli (ECHCG). Described as above. The class given is in vivo. Conditions: 312 h, rate 250 g/ha, evaluated after 13 days, read-out: Post-emergence activity ECHCG (100=total damage to plant; 0=no damage to plant). The method in brief:
as §1

For data set [10], the system named is Setaria faberi (SETFA). The description is as above. It is filed as in vivo. Conditions: 312 h, rate 250 g/ha, evaluated after 13 days, read-out: Post-emergence activity SETFA (100=total damage to plant; 0=no damage to plant). The method in brief: as §1
The subject of data set [11] is Alopecurus myosuroides (ALOMY). In words: Example A pre-emergence herbicidal activity, glasshouse pot test. The class given is in vivo. Conditions: 480 h, rate 250 g/ha, evaluated 20 days after spraying, read-out: Pre-emergence activity ALOMY (100=total damage to plant; 0=no damage to plant). The method in brief:
(§2)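 Pot-grown plants sprayed with compound in an aqueous emulsifiable formulation (Emulsogen EL, N-methylpyrrolidone, dipropylene glycol monomethyl ether, X-77) one day after sowing (pre-emergence) or after 10 days (post-emergence). Damage scored 0 (none) to 100 (total) after 20 days pre-emergence or 15 days post-emergence.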

Data set [12] concerns Avena fatua (AVEFA). The data set is described as above. It is filed as in vivo. Conditions: 480 h, rate 250 g/ha, evaluated 20 days after spraying, read-out: Pre-emergence activity AVEFA (100=total damage to plant; 0=no damage to plant). The method in brief: as §2
For data set [13], the system named is Digitaria sanguinalis (DIGSA). The data set is described as above. The class given is in vivo. Conditions: 480 h, rate 250 g/ha, evaluated 20 days after spraying, read-out: Pre-emergence activity DIGSA (100=total damage to plant; 0=no damage to plant). The method, boiled down:
as §2

Data set [14] concerns Echinochloa crus-galli (ECHCG). The data set is described as above. It is filed as in vivo. Conditions: 480 h, rate 250 g/ha, evaluated 20 days after spraying, read-out: Pre-emergence activity ECHCG (100=total damage to plant; 0=no damage to plant). The method, boiled down: as §2
Data set [15] has as its system Lolium perenne (LOLPE). The description is as above. The class given is in vivo. Conditions: 480 h, rate 250 g/ha, evaluated 20 days after spraying, read-out: Pre-emergence activity LOLPE (100=total damage to plant; 0=no damage to plant). The method, boiled down: as §2
Data set [16] relates to Setaria faberi (SETFA). The data set is described as above. It is filed as in vivo. Conditions: 480 h, rate 250 g/ha, evaluated 20 days after spraying, read-out: Pre-emergence activity SETFA (100=total damage to plant; 0=no damage to plant). The method in brief: as §2
Data set [17] concerns Alopecurus myosuroides (ALOMY). Kind of data set: Example A post-emergence herbicidal activity, glasshouse pot test. The class given is in vivo. Conditions: 360 h, rate 125 g/ha, evaluated 15 days after spraying, read-out: Post-emergence activity ALOMY (100=total damage to plant; 0=no damage to plant). The method, boiled down: as §2
Data set [18] deals with Avena fatua (AVEFA). The data set is described as above. It is filed as in vivo. Conditions: 360 h, rate 125 g/ha, evaluated 15 days after spraying, read-out: Post-emergence activity AVEFA (100=total damage to plant; 0=no damage to plant). The method, boiled down:
as §2

Data set [19] concerns Digitaria sanguinalis (DIGSA). The description is as above. The class given is in vivo. Conditions: 360 h, rate 125 g/ha, evaluated 15 days after spraying, read-out: Post-emergence activity DIGSA (100=total damage to plant; 0=no damage to plant). The method, boiled down: as §2
In data set [20] the test system is Echinochloa crus-galli (ECHCG). The description is as above. It is filed as in vivo. Conditions: 360 h, rate 125 g/ha, evaluated 15 days after spraying, read-out: Post-emergence activity ECHCG (100=total damage to plant; 0=no damage to plant). The method in brief: as §2
Data set [21] relates to Lolium perenne (LOLPE). Described as above. It is filed as in vivo. Conditions: 360 h, rate 125 g/ha, evaluated 15 days after spraying, read-out: Post-emergence activity LOLPE (100=total damage to plant; 0=no damage to plant). The method in brief: as §2
For data set [22], the system named is Setaria faberi (SETFA). Described as above. It is filed as in vivo. Conditions: 360 h, rate 125 g/ha, evaluated 15 days after spraying, read-out: Post-emergence activity SETFA (100=total damage to plant; 0=no damage to plant). The method, boiled down:
as §2

Compound `CCc1ccc(-c2ccc(Cl)cc2)cc1C1=C(O)C(C)(C)OC(C)(COC)C1=O` (stereo not drawn) [Compound A-99] gave a melting point of 123 to 124 °C. In addition, in data set [1], the pest or weed control at 250 g/ha was 80%. Besides, the pest or weed control at 250 g/ha in data set [2] came to 20%. The pest or weed control at 250 g/ha in the data set with Avena fatua (AVEFA) [3] is 50%. In data set [4], the pest or weed control at 250 g/ha came to 100%. In addition, in the data set with Setaria faberi (SETFA) [5], the pest or weed control at 250 g/ha was 100%. Also, the pest or weed control at 250 g/ha in data set [6] was found to be 90%. Also, in data set [7], the pest or weed control at 250 g/ha was found to be 0%. The pest or weed control at 250 g/ha in the data set on Avena fatua (AVEFA) [8] is 90%. Besides, the pest or weed control at 250 g/ha in [9] was determined as 100%. For the same compound, the pest or weed control at 250 g/ha in the data set on Setaria faberi (SETFA) [10] came to 100%.

In turn, `CCc1ccc(-c2ccc(F)cc2)cc1C1=C(O)[C@@]2(C)CC[C@H](O2)C1=O` [Compound A-38] gave a melting point of 165 to 167 °C. Besides, in data set [11], the pest or weed control at 250 g/ha is 50%. Also, in the data set with Avena fatua (AVEFA) [12], the pest or weed control at 250 g/ha was determined as 10%. Moreover, the pest or weed control at 250 g/ha in data set [13] is 30%. Further, the pest or weed control at 250 g/ha in data set [14] came out at 70%. Besides, the pest or weed control at 250 g/ha in the data set with Lolium perenne (LOLPE) [15] was 60%. Moreover, the pest or weed control at 250 g/ha in the data set with Setaria faberi (SETFA) [16] worked out at 90%. Moreover, the pest or weed control at 125 g/ha in [17] was found to be 50%. Besides, in the data set with Avena fatua (AVEFA) [18], the pest or weed control at 125 g/ha was determined as 60%. Moreover, the pest or weed control at 125 g/ha in [19] was found to be 70%. The pest or weed control at 125 g/ha in data set [20] is 90%. For the same compound, in the data set on Lolium perenne (LOLPE) [21], the pest or weed control at 125 g/ha came to 0%. Moreover, the pest or weed control at 125 g/ha in the data set on Setaria faberi (SETFA) [22] is 80%.

What is called melting point is the temperature, or range, at which the solid turns liquid.
